Data as given in patent US11999699B2, “Substituted pyrazole amides” (GRUENENTHAL GMBH, priority 2021, dated 2024).

Biological target: T1, human NaV1.8 (Homo sapiens, UniProt Q9Y5Y9)
T1 construct: The following NaV1.8 recombinant cell line was used for recordings: HEK-NaV1.8 (NM 006514.1); expressed in transfected cells; host or cells: HEK (recombinant cell line HEK-NaV1.8)
Assay: Electrophysiology: automated whole-cell voltage-clamp (patch clamp, Qube384) recordings of sodium currents in HEK-NaV1.8 cells
Assay type: cell-based
Conditions: potency data either taken from inactivated or resting state, read-out: Potency category (human NaV1.8 IC50)
Outline: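 Automated whole-cell patch clamp at room temperature on HEK cells expressing human NaV1.8, with 0.3% DMSO vehicle controls. State-dependent protocol from −120 mV tested resting (P1) and half-inactivated (P2, 4 s at V1/2) channels, plus 40-pulse trains at 10 and 20 Hz. Values after ~12 min compound exposure were normalised to baseline and corrected for vehicle run-down; IC50 from a 4-parameter logistic fit, taken from inactivated or resting state.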

T1 sequence (Q9Y5Y9 whole entry): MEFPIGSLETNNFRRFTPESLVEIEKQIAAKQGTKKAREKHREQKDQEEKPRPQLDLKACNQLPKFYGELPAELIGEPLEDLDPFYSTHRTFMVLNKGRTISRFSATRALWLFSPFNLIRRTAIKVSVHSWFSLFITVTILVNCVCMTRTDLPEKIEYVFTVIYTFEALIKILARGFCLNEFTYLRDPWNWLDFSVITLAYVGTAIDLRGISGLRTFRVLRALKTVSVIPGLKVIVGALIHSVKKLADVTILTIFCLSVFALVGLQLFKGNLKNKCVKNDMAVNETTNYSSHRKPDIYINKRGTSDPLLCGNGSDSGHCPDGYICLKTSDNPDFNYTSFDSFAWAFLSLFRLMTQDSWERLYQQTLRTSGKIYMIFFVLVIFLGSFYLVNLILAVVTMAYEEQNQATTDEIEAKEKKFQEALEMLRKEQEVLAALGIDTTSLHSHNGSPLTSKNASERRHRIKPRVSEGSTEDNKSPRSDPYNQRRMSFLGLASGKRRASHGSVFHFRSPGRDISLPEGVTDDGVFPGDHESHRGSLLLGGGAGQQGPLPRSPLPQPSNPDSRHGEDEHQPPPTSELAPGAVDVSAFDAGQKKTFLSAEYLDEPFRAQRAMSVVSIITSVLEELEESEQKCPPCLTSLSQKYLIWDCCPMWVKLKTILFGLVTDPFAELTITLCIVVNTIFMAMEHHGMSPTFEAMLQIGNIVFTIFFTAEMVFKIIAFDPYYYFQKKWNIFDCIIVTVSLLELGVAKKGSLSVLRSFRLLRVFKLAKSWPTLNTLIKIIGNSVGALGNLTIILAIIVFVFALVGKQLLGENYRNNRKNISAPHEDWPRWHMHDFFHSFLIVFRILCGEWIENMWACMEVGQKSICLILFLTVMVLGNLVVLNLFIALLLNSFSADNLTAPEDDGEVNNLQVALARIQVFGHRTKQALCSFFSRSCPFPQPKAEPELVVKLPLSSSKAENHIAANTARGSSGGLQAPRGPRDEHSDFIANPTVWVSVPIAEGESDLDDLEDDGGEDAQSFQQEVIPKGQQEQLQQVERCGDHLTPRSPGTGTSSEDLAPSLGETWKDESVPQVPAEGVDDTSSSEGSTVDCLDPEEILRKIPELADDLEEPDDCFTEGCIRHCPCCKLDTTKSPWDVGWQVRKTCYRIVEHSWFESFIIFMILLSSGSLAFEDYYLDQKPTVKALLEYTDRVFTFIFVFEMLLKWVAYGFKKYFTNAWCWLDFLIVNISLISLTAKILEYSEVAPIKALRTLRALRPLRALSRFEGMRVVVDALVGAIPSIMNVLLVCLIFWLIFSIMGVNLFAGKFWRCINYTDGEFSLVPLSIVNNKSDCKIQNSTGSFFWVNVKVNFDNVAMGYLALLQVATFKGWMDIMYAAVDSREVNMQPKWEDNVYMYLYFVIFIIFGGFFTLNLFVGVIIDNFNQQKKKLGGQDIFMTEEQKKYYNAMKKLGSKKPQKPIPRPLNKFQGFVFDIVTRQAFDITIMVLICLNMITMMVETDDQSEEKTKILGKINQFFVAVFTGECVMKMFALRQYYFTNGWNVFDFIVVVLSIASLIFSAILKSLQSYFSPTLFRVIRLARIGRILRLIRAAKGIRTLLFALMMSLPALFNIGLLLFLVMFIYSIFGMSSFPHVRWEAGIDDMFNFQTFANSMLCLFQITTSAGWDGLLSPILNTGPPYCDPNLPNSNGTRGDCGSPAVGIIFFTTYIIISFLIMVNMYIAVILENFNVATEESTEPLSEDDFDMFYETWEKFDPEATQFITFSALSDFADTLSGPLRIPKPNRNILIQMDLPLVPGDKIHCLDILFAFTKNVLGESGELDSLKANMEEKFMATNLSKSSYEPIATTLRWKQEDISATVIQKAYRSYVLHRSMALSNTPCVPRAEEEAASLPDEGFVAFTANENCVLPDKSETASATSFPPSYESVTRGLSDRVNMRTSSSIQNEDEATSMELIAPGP
T1 sequence (Q9NY72 23-215 partner): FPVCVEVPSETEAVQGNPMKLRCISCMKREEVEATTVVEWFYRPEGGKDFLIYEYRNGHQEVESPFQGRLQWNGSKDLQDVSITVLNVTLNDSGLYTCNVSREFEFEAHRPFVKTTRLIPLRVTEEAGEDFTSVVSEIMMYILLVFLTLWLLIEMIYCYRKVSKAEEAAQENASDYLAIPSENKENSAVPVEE

SMILES	IC50
Cc1nn(CC2CCC(F)(F)CC2)c(C(=O)Nc2cnnc(C(N)=O)c2)c1C(F)(F)F [SC-321, 5-(1-((4,4-difluorocyclohexyl)methyl)-3-methyl-4-(trifluoromethyl)-1H-pyrazole-5-carboxamido)pyridazine-3-carboxamide]	0.1 to 1 µM
CS(=O)(=O)c1cc(NC(=O)c2c(OC(F)F)c(C3CC3)nn2CC2CCOCC2)ccn1 [SC-322, 3-cyclopropyl-4-(difluoromethoxy)-N-(2-(methylsulfonyl)pyridin-4-yl)-1-((tetrahydro-2H-pyran-4-yl)methyl)-1H-pyrazole-5-carboxamide]	1 to 10 µM
Cc1c(OC(F)F)nn(CC2CC(F)(F)C2)c1C(=O)Nc1ccnc(S(C)(=O)=O)c1 [SC-323, 1-((3,3-difluorocyclobutyl)methyl)-3-(difluoromethoxy)-4-methyl-N-(2-(methylsulfonyl)pyridin-4-yl)-1H-pyrazole-5-carboxamide]	0.1 to 1 µM

Now from value to molecule:

IC50	SMILES
≤ 0.1 µM	NC(=O)c1cc(NC(=O)c2c(C(F)(F)F)c(C(F)F)nn2CC2CC(F)(F)C2)ccn1 [SC-324, 4-(1-((3,3-difluorocyclobutyl)methyl)-3-(difluoromethyl)-4-(trifluoromethyl)-1H-pyrazole-5-carboxamido)picolinamide]
≤ 0.1 µM	NC(=O)c1cc(NC(=O)c2c(C(F)(F)F)c(C(F)F)nn2CC2CCC(F)(F)C2)ccn1 (centres unmarked) [SC-325, 4-(1-((3,3-difluorocyclopentyl)methyl)-3-(difluoromethyl)-4-(trifluoromethyl)-1H-pyrazole-5-carboxamido)picolinamide]
